Patent US8871435B2, “Methods and compositions for identifying agents that inhibit an NS4B-mediated neoplastic cellular phenotype of HCV infected cells” (The Board of Trustees of the Leland Stanford Junior …, priority 2007, dated 2014)

Biological target: NS4B-GFP (Hepatitis C virus genotype 1b, UniProt Q9WMX2)
Type: binding, hepatitis C virus (HCV)

NS4B-GFP, sequence (Q9WMX2 1712-1972): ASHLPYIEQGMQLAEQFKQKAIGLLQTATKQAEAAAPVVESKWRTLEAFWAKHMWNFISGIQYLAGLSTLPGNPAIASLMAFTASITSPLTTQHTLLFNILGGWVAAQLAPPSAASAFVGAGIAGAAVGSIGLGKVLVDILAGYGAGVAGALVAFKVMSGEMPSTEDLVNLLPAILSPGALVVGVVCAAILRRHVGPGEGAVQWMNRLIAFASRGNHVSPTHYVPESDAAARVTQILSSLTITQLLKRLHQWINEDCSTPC

SMILES | labeling (binding) of NS4B-GFP by 32P-labeled photoactivatable nucleotide analog | binding of labeled GTP in the presence of cold competitor nucleotide
[N-]=[N+]=Nc1ccc(NP(=O)(O)OP(=O)(O)OP(=O)(O)OC[C@H]2O[C@@H](n3cnc4c(N)ncnc43)[C@H](O)[C@@H]2O)cc1 [ATP, ATP-γ-4-azidoanilide] | significantly less efficient than GTP binding | 
[N-]=[N+]=Nc1ccc(NP(=O)(O)OP(=O)(O)OP(=O)(O)OC[C@H]2O[C@@H](n3cnc4c(=O)[nH]c(N)nc43)[C@H](O)[C@@H]2O)cc1 [GTP, GTP-γ-4-azidoanilide] | specifically labeled | 
Nc1nc2c(ncn2[C@@H]2O[C@H](COP(=O)(O)OP(=O)(O)OP(O)(O)=S)[C@@H](O)[C@H]2O)c(=O)[nH]1 [GTPγS] |  | progressively decreased
